This is an account of results in patent US20240174611A1 (Rappta Therapeutics Oy, priority 2021, published 2024).

The test system of this experiment is LNCaP cells. Kind of experiment: LNCaP cell viability assay (MTS). In kind it is cell-based. The note with it: Homo sapiens, LNCaP, 48 h, LNCaP cell line, 48 hours treatment. How it is done:
LNCaP cell line was used for the cell viability assay. LNCaP cells were plated in 96-well plates at a density of 5000 cells per well. After 24 hours of plating, the cells were treated with increasing doses of compound 1-100 ranging from 1 μM to 80 μM. Relative cell numbers were analyzed after 48 hours using 3-(4,5-dimethylthiazol-2-yl)-5-(3-carboxymethoxyphenyl)-2-(4-sulfophenyl)-2H-tetrazolium (MTS) assay (Promega) according to the manufacturer's instructions.
The cell viability data was analyzed with GraphPad Prism software. The values were log transformed and analyzed with non-linear regression (curve-fit) using log(inhibitor) vs. response—variable slope (four parameters) and constraining the bottom to equal zero. Unless otherwise indicated, the GI50 values provided in Table 35 correspond to the LNCaP cell viability assays.
For `O=S(=O)(NC1(c2ccc(Cl)c(Cl)c2)CCNC1)c1ccc(OC(F)(F)F)cc1` (stereo not shown) [Compound 41, N-(3-(3,4-dichlorophenyl)pyrrolidin-3-yl)-4-(trifluoromethoxy)benzene-sulfonamide], growth was halved (GI50) at 10.4 µM.

On to `O=S(=O)(NC1(c2ccc(Cl)cc2)CCNCC1)c1ccc(OC(F)(F)F)cc1` [Compound 45, N-(4-(4-chlorophenyl)piperidin-4-yl)-4-(trifluoromethoxy)benzenesulfonamide], for which halving of growth (GI50) required 11 µM.

Turning to `O=S(=O)(NC1(c2ccccc2)CNC1)c1ccc(OC(F)(F)F)cc1` [Compound 46, N-(3-phenylazetidin-3-yl)-4-(trifluoromethoxy)benzenesulfonamide], the concentration for 50% growth inhibition (GI50) (as a rule, the concentration giving 50% growth inhibition) is at least 80 µM.

For `O=S(=O)(NC1(c2ccc(Cl)cc2)CNC1)c1ccc(OC(F)(F)F)cc1` [Compound 47, N-(3-(4-chlorophenyl)azetidin-3-yl)-4-(trifluoromethoxy)benzenesulfonamide], the GI50 was found to be 31.8 µM. This lies in the double-digit micromolar range.

`O=S(=O)(NC1(c2ccc(Cl)c(Cl)c2)CNC1)c1ccc(OC(F)(F)F)cc1` [Compound 48, N-(3-(3,4-dichlorophenyl)azetidin-3-yl)-4-(trifluoromethoxy)benzenesulfonamide] returned a GI50 of 18.2 µM.

`O=S(=O)(NC1(c2ccc(Cl)c(Cl)c2)CCNCC1)c1ccc(OC(F)(F)F)cc1` [Compound 49, N-(4-(3,4-dichlorophenyl)piperidin-4-yl)-4-(trifluoromethoxy)benzenesulfonamide] had a GI50 of 6.75 µM.

The compound `O=S(=O)(NC1(c2ccccc2)CCNCC1)c1ccc(OC(F)(F)F)cc1` [Compound 50, N-(4-phenylpiperidin-4-yl)-4-(trifluoromethoxy)benzenesulfonamide] had a GI50 of 23.3 µM.

The compound `O=S(=O)(NC1(c2ccc(Cl)c(F)c2)CCNC1)c1ccc(OC(F)(F)F)cc1` (stereo not shown) [Compound 52, N-(3-(4-chloro-3-fluorophenyl)pyrrolidin-3-yl)-4-(trifluoromethoxy)benzenesulfonamide] gave a 50% growth inhibitory concentration (GI50) of 23.4 µM.

`CC(C)(C)OC(=O)N1CCC(NS(=O)(=O)c2ccc(OC(F)(F)F)cc2)(c2ccc(Cl)cc2)CC1` [Compound 53, tert-butyl 4-(4-chlorophenyl)-4-((4-(trifluoromethoxy)phenyl)sulfonamido)piperidine-1-carboxylate]: the concentration for 50% growth inhibition (GI50) was 16.3 µM. This GI50 and that of the compound before are within 1.5-fold of each other.

On to `O=S(=O)(NC1(c2ccc(Cl)cc2)CCN(Cc2ccccc2)C1)c1ccc(Oc2ccc(C(F)(F)F)cc2)cc1` (stereo not shown) [Compound 54, N-(1-benzyl-3-(4-chlorophenyl)pyrrolidin-3-yl)-4-(4-(trifluoromethyl)phenoxy)benzenesulfonamide], for which growth was halved (GI50) at 26.8 µM.

Consider `O=S(=O)(NC1(c2ccc(Cl)c(Cl)c2)CCN(Cc2ccccc2)C1)c1ccc(Oc2ccc(C(F)(F)F)cc2)cc1` (stereo not shown) [Compound 55, N-(1-benzyl-3-(3,4-dichlorophenyl)pyrrolidin-3-yl)-4-(4-(trifluoromethyl)phenoxy)benzenesulfonamide], for which the GI50 was 38 µM.

The compound `O=S(=O)(NC1(c2ccc(Cl)c(F)c2)CCNCC1)c1ccc(OC(F)(F)F)cc1` [Compound 56, N-(4-(4-chloro-3-fluorophenyl)piperidin-4-yl)-4-(trifluoromethoxy)benzenesulfonamide] returned a 50% growth inhibitory concentration (GI50) of 11 µM.

As to `O=S(=O)(NC1(c2ccc(Cl)cc2)CCNC1)c1ccc(Oc2ccc(C(F)(F)F)cc2)cc1` (stereo not shown) [Compound 57, N-(3-(4-chlorophenyl)pyrrolidin-3-yl)-4-(4-(trifluoromethyl)phenoxy)benzenesulfonamide], it took 10.6 µM to inhibit growth by half (GI50).

Consider `O=S(=O)(NC1(c2ccc(Cl)c(F)c2)CNC1)c1ccc(OC(F)(F)F)cc1` [Compound 58, N-(3-(4-chloro-3-fluorophenyl)azetidin-3-yl)-4-(trifluoromethoxy)benzenesulfonamide], for which halving of growth (GI50) required 23.2 µM. Against the preceding compound, the GI50 is about 2.2-fold higher.

`O=S(=O)(NC1(c2ccc(F)cc2)CCNCC1)c1ccc(OC(F)(F)F)cc1` [Compound 59, N-(4-(4-fluorophenyl)piperidin-4-yl)-4-(trifluoromethoxy)benzenesulfonamide]: the 50% growth inhibitory concentration (GI50) worked out at 18.1 µM. The GI50 values of the last two compounds are within 1.5-fold of each other.

Regarding `O=S(=O)(NC1(c2ccccc2)CCNCC1)c1ccc(OC(F)(F)F)nc1` [Compound 60, N-(4-phenylpiperidin-4-yl)-6-(trifluoromethoxy)pyridine-3-sulfonamide], the GI50 was 49.6 µM. Against the preceding compound, the GI50 is about 2.7-fold higher.

In turn, `CN1CCC(NS(=O)(=O)c2ccc(OC(F)(F)F)cc2)(c2ccccc2)CC1` [Compound 61, N-(1-methyl-4-phenylpiperidin-4-yl)-4-(trifluoromethoxy)benzenesulfonamide] returned a 50% growth inhibitory concentration (GI50) of 44.1 µM.

Take `CC(C)Oc1ccc(S(=O)(=O)NC2(c3ccc(Cl)cc3)CCNCC2)cc1` [Compound 62, N-(4-(4-chlorophenyl)piperidin-4-yl)-4-isopropoxybenzenesulfonamide]: it took 11.3 µM to inhibit growth by half (GI50).

The compound `N=S(=O)(NC1(c2ccc(Cl)cc2)CCNC1)c1ccc(OC(F)(F)F)cc1` (stereo not shown) [Compound 63, N-(3-(4-chlorophenyl)pyrrolidin-3-yl)-4-(trifluoromethoxy)benzenesulfonimidamide] came in with a GI50 of 38.4 µM.

`O=S(=O)(NC1(c2ccc(Cl)cc2)CCNC1)c1ccc(OC(F)(F)F)nc1` (stereo not shown) [Compound 64, N-(3-(4-chlorophenyl)pyrrolidin-3-yl)-6-(trifluoromethoxy)pyridine-3-sulfonamide] gave a GI50 of 44.9 µM.

As to `O=S(=O)(NC1(C23CC(C2)C3)CCNCC1)c1ccc(OC(F)(F)F)cc1` [Compound 66, N-(4-(bicyclo[1.1.1]pentan-1-yl)piperidin-4-yl)-4-(trifluoromethoxy)benzenesulfonamide], the 50% growth inhibitory concentration (GI50) amounted to 68.6 µM.

Compound `CC(C)Oc1ccc(S(=O)(=O)NC2(c3ccc(Cl)cc3)CCNCC2)cn1` [Compound 67, N-(4-(4-chlorophenyl)piperidin-4-yl)-6-isopropoxypyridine-3-sulfonamide] showed a GI50 of 18.2 µM.

Consider `CN=S(=O)(NC1(c2ccc(Cl)cc2)CCNC1)c1ccc(OC(F)(F)F)cc1` (stereo not shown) [Compound 68, N-(3-(4-chlorophenyl)pyrrolidin-3-yl)-N′-methyl-4-(trifluoromethoxy)benzenesulfonimidamide], for which the GI50 came to 27.2 µM.

The compound `CN1CCC(NS(=O)(=O)c2ccc(OC(F)(F)F)cc2)(c2ccc(Cl)cc2)C1` (stereo not shown) [Compound 69, N-(3-(4-chlorophenyl)-1-methylpyrrolidin-3-yl)-4-(trifluoromethoxy)benzenesulfonamide] gave a GI50 of 19.5 µM.

On to `CC(C)(C)OC(=O)N1CCC(NS(=O)(=O)c2ccc(OC(F)(F)F)cc2)(c2ccc(Cl)cc2)C1` (stereo not shown) [Compound 70], for which the GI50 was 21.7 µM. This GI50 and that of the compound before are within 1.5-fold of each other.

Regarding `O=S(=O)(NC1(c2ccc(Cl)cc2)CCN(C2COC2)C1)c1ccc(OC(F)(F)F)cc1` (stereo not shown) [Compound 71, N-(3-(4-chlorophenyl)-1-(oxetan-3-yl)pyrrolidin-3-yl)-4-(trifluoromethoxy)benzenesulfonamide], the concentration for 50% growth inhibition (GI50) was found to be 59.1 µM.

For the compound `CS(=O)(=O)N1CCC(NS(=O)(=O)c2ccc(OC(F)(F)F)cc2)(c2ccc(Cl)cc2)C1` (stereo not shown) [Compound 72, N-(3-(4-chlorophenyl)-1-(methylsulfonyl)pyrrolidin-3-yl)-4-(trifluoromethoxy)benzenesulfonamide], halving of growth (GI50) required 50.4 µM.

For the compound `O=S(=O)(NC1(c2ncc(Cl)s2)CCNCC1)c1ccc(OC(F)(F)F)cc1` [Compound 73, N-(4-(5-chlorothiazol-2-yl)piperidin-4-yl)-4-(trifluoromethoxy)benzenesulfonamide], growth was halved (GI50) at 56.4 µM.

`O=S(=O)(NC1(c2ccc(F)cc2)CCNC1)c1ccc(OC(F)(F)F)cc1` (stereo not shown) [Compound 74, N-(3-(4-fluorophenyl)pyrrolidin-3-yl)-4-(trifluoromethoxy)benzenesulfonamide] had a concentration for 50% growth inhibition (GI50) of 47.9 µM.

Consider `CC(C)Oc1ccc(S(=O)(=O)NC2(c3ccc(F)cc3)CCNCC2)cc1` [Compound 75, N-(4-(4-fluorophenyl)piperidin-4-yl)-4-isopropoxybenzenesulfonamide], for which the GI50 turned out to be 30.7 µM.

Regarding `CC(C)Oc1ccc(S(=O)(=O)NC2(c3ccc(F)cc3)CCNCC2)cn1` [Compound 77, N-(4-(4-fluorophenyl)piperidin-4-yl)-6-isopropoxypyridine-3-sulfonamide], the GI50 was 41.7 µM.

`CC(C)Oc1ccc(S(=O)(=O)NC2(c3ccc(F)cc3)CCNC2)cc1` (stereo not shown) [Compound 78, N-(3-(4-fluorophenyl)pyrrolidin-3-yl)-4-isopropoxybenzenesulfonamide] yielded a 50% growth inhibitory concentration (GI50) of 70.5 µM.

The compound `CC(C)Oc1ccc(S(=O)(=O)NC2(c3ccc(Cl)cc3)CCNC2)cn1` (stereo not shown) [Compound 80, N-(3-(4-chlorophenyl)pyrrolidin-3-yl)-6-isopropoxypyridine-3-sulfonamide] returned a 50% growth inhibitory concentration (GI50) of 50 µM.

Turning to `CC(C)CC(=O)N1CCC(NS(=O)(=O)c2ccc(OC(F)(F)F)cc2)(c2ccc(Cl)cc2)C1` (stereo not shown) [Compound 81, N-(3-(4-chlorophenyl)-1-(3-methylbutanoyl)pyrrolidin-3-yl)-4-(trifluoromethoxy)benzenesulfonamide], growth was halved (GI50) at 45.8 µM.

Take `O=S(=O)(NC1(c2ccc(F)c(F)c2)CCNCC1)c1ccc(OC(F)(F)F)cc1` [Compound 82, N-(4-(3,4-difluorophenyl)piperidin-4-yl)-4-(trifluoromethoxy)benzenesulfonamide]: the concentration for 50% growth inhibition (GI50) turned out to be 14.4 µM.

Regarding `O=S(=O)(NC1(c2ccc(F)cc2F)CCNCC1)c1ccc(OC(F)(F)F)cc1` [Compound 83, N-(4-(2,4-difluorophenyl)piperidin-4-yl)-4-(trifluoromethoxy)benzenesulfonamide], the GI50 was determined as 32 µM. Against the preceding compound, the GI50 is about 2.2-fold higher.

`CN(C1(c2ccc(Cl)cc2)CCNC1)S(=O)(=O)c1ccc(OC(F)(F)F)cc1` (stereo not shown) [Compound 85, N-(3-(4-chlorophenyl)pyrrolidin-3-yl)-N-methyl-4-(trifluoromethoxy)benzenesulfonamide] displayed a 50% growth inhibitory concentration (GI50) of 33.5 µM.
